Laboratory results reported in US8981141B1, “I-and II-type crystals of L-A-glyceryl phosphoryl choline, and method for preparing same” (Hanseochem Co., Ltd., priority 2011, dated 2015).
“Also recorded” adds a separate entry of the source.

Test: Hygroscopicity test (water content change with time under 30% humidity)
Type: physicochemical
Details: for hygroscopicity (result in words): humidity condition of 30% for 10 hours; for water content after being left under humidity: humidity condition of 30%, after about 10 hours; for initial water content: raw material before exposure to humidity condition of 30%
Protocol: In the figure, X axis indicates the elapse time and Y axis the water content.
In case of the polymorphic crystal, however, the initial water content was 2.9% but increased to 4.2% after 10 hours due to absorption moisture from air.

hygroscopicity (result in words) | water content after being left under humidity [%] | initial water content [%] | Compound
very low hygroscopicity | 0.2 | 0.1 | C[N+](C)(C)CCOP(=O)(O)OC[C@H](O)CO [Type I crystal, L-alpha-glyceryl phosphoryl choline]
very low hygroscopicity | 6.5 | 6.5 | C[N+](C)(C)CCOP(=O)(O)OC[C@H](O)CO [Type II crystal, L-alpha-glyceryl phosphoryl choline]

Compound | hygroscopicity (result in words) | water content after being left under humidity [%] | initial water content [%]
C[N+](C)(C)CCOP(=O)(O)OC[C@H](O)CO [polymorphic crystal, L-alpha-glyceryl phosphoryl choline, reference compound] | relatively very hygroscopic; also recorded: high hygroscopicity | 4.2 | 2.9
